# Laboratory results: US20150105252A1, “SUBSTITUTED PYRAZOLES AS HERBICIDES” (E I DU PONT DE NEMOURS AND COMPANY, priority 2013, published 2015)
# Legend:
# [1] = system: pigweed; assay: Test A postemergence; format: in vivo, Amaranthus retroflexus
# Summary of the method: (§1)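 Seeds were sown in a loam soil–sand blend and given a directed soil spray preemergence; postemergence plants at 2–10 cm, one- to two-leaf stage, were sprayed with compound in non-phytotoxic solvent with surfactant. After about 10 days in a greenhouse, injury was visually rated against untreated controls (0 = no effect, 100 = complete control).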
# [2] = system: nutsedge, yellow; assay: Test C preemergence; format: in vivo, Cyperus esculentus; conditions: for Plant response rating (scale of 0 to 100), Nutsedge, Yellow: Preemergence; for Nutsedge, Yellow plant response rating / Plant response rating, Nutsedge, Yellow: preemergence; for Plant response rating, Nutsedge, Yellow: scale 0 to 100, 0 = no effect, 100 = complete control
# Summary of the method: (§2)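 Seeds were sown in a loam soil–sand blend and sprayed preemergence with compounds formulated in a non-phytotoxic solvent mixture containing surfactant. Postemergence plants, grown in peat/vermiculite medium to 2–18 cm (1- to 4-leaf stage), received the same formulation. After 13 to 15 days in a greenhouse, injury was rated visually against controls (0 = no effect, 100 = complete control).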
# [3] = system: morningglory; assay: Test C preemergence; format: in vivo, Ipomoea coccinea; conditions: for Plant response rating (scale of 0 to 100), Morningglory: Preemergence; for Morningglory plant response rating / Plant response rating, Morningglory: preemergence; for Plant response rating, Morningglory: scale 0 to 100, 0 = no effect, 100 = complete control
# Summary of the method: as §2
# [4] = system: soybean; assay: Test C preemergence; format: in vivo, Glycine max; conditions: for Plant response rating (scale of 0 to 100), Soybean: Preemergence; for Soybean plant response rating / Plant response rating, Soybean: preemergence; for Plant response rating, Soybean: scale 0 to 100, 0 = no effect, 100 = complete control
# Summary of the method: as §2
# [5] = system: wheat; assay: Test A preemergence; format: in vivo, Triticum aestivum; conditions: preemergence
# Summary of the method: as §1
# [6] = system: foxtail, giant; assay: Test A postemergence; format: in vivo, Setaria faberii
# Summary of the method: as §1
# [7] = system: morningglory; assay: Test A postemergence; format: in vivo, Ipomoea spp.
# Summary of the method: as §1
# [8] = system: pigweed; assay: Test C preemergence; format: in vivo, Amaranthus retroflexus; conditions: for Plant response rating (scale of 0 to 100), Pigweed: Preemergence; for Pigweed plant response rating / Plant response rating, Pigweed: preemergence; for Plant response rating, Pigweed: scale 0 to 100, 0 = no effect, 100 = complete control
# Summary of the method: as §2
# [9] = system: sedge, umbrella; assay: Test B flood; format: in vivo, Cyperus difformis; conditions: 250 g ai/ha, visual rating on 0 to 100 scale (0 no effect, 100 complete control), 13 to 15 days
# Summary of the method: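 Flooded-pot test: compound dosed into 3 cm of standing water above soil when plants had two leaves. Visual control ratings (0–100) versus untreated plants after 13–15 d.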
# [10] = system: corn; assay: Test A preemergence; format: in vivo, Zea mays; conditions: preemergence
# Summary of the method: as §1
# [11] = system: blackgrass; assay: Test C preemergence; format: in vivo, Alopecurus myosuroides; conditions: for Plant response rating (scale of 0 to 100), Blackgrass: Preemergence; for Blackgrass plant response rating / Plant response rating, Blackgrass: preemergence; for Plant response rating, Blackgrass: scale 0 to 100, 0 = no effect, 100 = complete control
# Summary of the method: as §2
# [12] = system: velvetleaf; assay: Test C preemergence; format: in vivo, Abutilon theophrasti; conditions: for Plant response rating (scale of 0 to 100), Velvetleaf: Preemergence; for Velvetleaf plant response rating / Plant response rating, Velvetleaf: preemergence; for Plant response rating, Velvetleaf: scale 0 to 100, 0 = no effect, 100 = complete control
# Summary of the method: as §2
# [13] = system: barnyardgrass; assay: Test A postemergence; format: in vivo, Echinochloa crus-galli
# Summary of the method: as §1
# [14] = Postemergence, 500 g ai/ha, visual rating after approx. 10 days, 0 to 100 scale (0 no effect, 100 complete control)
# [15] = postemergence, 125 g ai/ha, about 10 days, visual rating on 0 to 100 scale (0 no effect, 100 complete control)
# [16] = 31 g ai/ha, visual rating, scale 0 to 100 (0 no effect, 100 complete control), 13 to 15 days
# [17] = 62 g ai/ha, scale 0 to 100 (0 no effect, 100 complete control), 13 to 15 days
# [18] = 125 g ai/ha, scale 0 to 100, 0 is no effect, 100 is complete control
# [19] = 125 g ai/ha, visual injury, 0 to 100 scale, approx. 10 days
# [20] = 500 g ai/ha, visual injury after approx. 10 days, 0 to 100 scale (0 no effect, 100 complete control)
# [21] = Postemergence, 500 g ai/ha, 0 to 100 scale (0 no effect, 100 complete control)
# [22] = 250 g ai/ha, scale 0 to 100, 0 is no effect, 100 is complete control
SMILES,"Pigweed plant response rating [1, 15]","Nutsedge, Yellow plant response rating [2, 16]","Nutsedge, Yellow plant response rating [2, 17]","Morningglory plant response rating [3, 16]","Morningglory plant response rating [3, 17]","Soybean plant response rating [4, 16]","Soybean plant response rating [4, 17]","Wheat plant response rating [5, 19]","Wheat plant response rating [5, 20]","Foxtail, Giant plant response rating [6, 15]","Morningglory plant response rating [7, 15]","Pigweed plant response rating [8, 16]","Pigweed plant response rating [8, 17]","Plant response rating, Sedge, Umbrella [9]","Corn plant response rating [10, 19]","Corn plant response rating [10, 20]","Blackgrass plant response rating [11, 16]","Blackgrass plant response rating [11, 17]","Velvetleaf plant response rating [12, 16]","Velvetleaf plant response rating [12, 17]",further results
CCCc1cc(C(=O)NCC(F)(F)F)nn1Cc1ccnc(C(F)(F)F)c1 [Compound 105],100,50,85,100,100,70,70,60,100,100,100,100,100,95,60,70,90,90,98,100,"Pigweed plant response rating [1, 14]: 100; Plant response rating (scale of 0 to 100), Nutsedge, Yellow ([2]; 250 g ai/ha): 95; Nutsedge, Yellow plant response rating [2, 18]: 95; Plant response rating (scale of 0 to 100), Morningglory ([3]; 250 g ai/ha): 100; Morningglory plant response rating [3, 18]: 100; Plant response rating (scale of 0 to 100), Soybean ([4]; 250 g ai/ha): 95; Soybean plant response rating [4, 18]: 95; Foxtail, Giant plant response rating [6, 14]: 100; Morningglory plant response rating [7, 14]: 100; Plant response rating (scale of 0 to 100), Pigweed ([8]; 250 g ai/ha): 100; Pigweed plant response rating [8, 18]: 100; Plant response rating (scale of 0 to 100), Blackgrass ([11]; 250 g ai/ha): 90; Blackgrass plant response rating [11, 18]: 90; Plant response rating (scale of 0 to 100), Velvetleaf ([12]; 250 g ai/ha): 100; Velvetleaf plant response rating [12, 18]: 100; Barnyardgrass plant response rating [13, 14]: 100; Barnyardgrass plant response rating [13, 15]: 90"
CCCc1cc(C(=O)NCC)nn1Cc1cc(C(F)(F)F)nn1C [Compound 129],100,5,25,45,98,40,55,50,100,80,90,100,100,95,10,30,60,80,55,100,"Pigweed plant response rating [1, 21]: 100; Plant response rating (scale of 0 to 100), Nutsedge, Yellow ([2]; 250 g ai/ha): 75; Plant response rating, Nutsedge, Yellow ([2]; 125 g ai/ha, 13 to 15 days): 60; Plant response rating (scale of 0 to 100), Morningglory ([3]; 250 g ai/ha): 100; Plant response rating, Morningglory ([3]; 125 g ai/ha, 13 to 15 days): 100; Plant response rating (scale of 0 to 100), Soybean ([4]; 250 g ai/ha): 98; Plant response rating, Soybean ([4]; 125 g ai/ha, 13 to 15 days): 98; Foxtail, Giant plant response rating [6, 21]: 90; Morningglory plant response rating [7, 21]: 100; Plant response rating (scale of 0 to 100), Pigweed ([8]; 250 g ai/ha): 100; Plant response rating, Pigweed ([8]; 125 g ai/ha, 13 to 15 days): 100; Plant response rating (scale of 0 to 100), Blackgrass ([11]; 250 g ai/ha): 90; Plant response rating, Blackgrass ([11]; 125 g ai/ha, 13 to 15 days): 90; Plant response rating (scale of 0 to 100), Velvetleaf ([12]; 250 g ai/ha): 100; Plant response rating, Velvetleaf ([12]; 125 g ai/ha, 13 to 15 days): 100; Barnyardgrass plant response rating [13, 21]: 90; Barnyardgrass plant response rating [13, 15]: 90"
CCNC(=O)c1cc(CC)n(Cc2ccnc(OC(F)F)c2)n1 [Compound 130],100,25,65,65,98,10,55,10,90,60,90,100,100,90,0,90,25,98,55,100,"Pigweed plant response rating [1, 21]: 100; Plant response rating (scale of 0 to 100), Nutsedge, Yellow ([2]; 250 g ai/ha): 75; Plant response rating, Nutsedge, Yellow ([2]; 125 g ai/ha, 13 to 15 days): 75; Plant response rating (scale of 0 to 100), Morningglory ([3]; 250 g ai/ha): 100; Plant response rating, Morningglory ([3]; 125 g ai/ha, 13 to 15 days): 100; Plant response rating (scale of 0 to 100), Soybean ([4]; 250 g ai/ha): 98; Plant response rating, Soybean ([4]; 125 g ai/ha, 13 to 15 days): 90; Foxtail, Giant plant response rating [6, 21]: 90; Morningglory plant response rating [7, 21]: 100; Plant response rating (scale of 0 to 100), Pigweed ([8]; 250 g ai/ha): 100; Plant response rating, Pigweed ([8]; 125 g ai/ha, 13 to 15 days): 100; Plant response rating (scale of 0 to 100), Blackgrass ([11]; 250 g ai/ha): 98; Plant response rating, Blackgrass ([11]; 125 g ai/ha, 13 to 15 days): 98; Plant response rating (scale of 0 to 100), Velvetleaf ([12]; 250 g ai/ha): 100; Plant response rating, Velvetleaf ([12]; 125 g ai/ha, 13 to 15 days): 90; Barnyardgrass plant response rating [13, 21]: 90; Barnyardgrass plant response rating [13, 15]: 70"
CCCNC(=O)c1cc(CC)n(Cc2ccnc(OC(F)F)c2)n1 [Compound 132],90,35,55,60,100,35,75,80,100,80,90,100,100,90,40,80,95,98,55,100,"Pigweed plant response rating [1, 21]: 100; Plant response rating (scale of 0 to 100), Nutsedge, Yellow ([2]; 250 g ai/ha): 70; Plant response rating, Nutsedge, Yellow ([2]; 125 g ai/ha, 13 to 15 days): 80; Plant response rating (scale of 0 to 100), Morningglory ([3]; 250 g ai/ha): 100; Plant response rating, Morningglory ([3]; 125 g ai/ha, 13 to 15 days): 100; Plant response rating (scale of 0 to 100), Soybean ([4]; 250 g ai/ha): 95; Plant response rating, Soybean ([4]; 125 g ai/ha, 13 to 15 days): 90; Foxtail, Giant plant response rating [6, 21]: 90; Morningglory plant response rating [7, 21]: 100; Plant response rating (scale of 0 to 100), Pigweed ([8]; 250 g ai/ha): 100; Plant response rating, Pigweed ([8]; 125 g ai/ha, 13 to 15 days): 100; Plant response rating (scale of 0 to 100), Blackgrass ([11]; 250 g ai/ha): 98; Plant response rating, Blackgrass ([11]; 125 g ai/ha, 13 to 15 days): 98; Plant response rating (scale of 0 to 100), Velvetleaf ([12]; 250 g ai/ha): 100; Plant response rating, Velvetleaf ([12]; 125 g ai/ha, 13 to 15 days): 100; Barnyardgrass plant response rating [13, 21]: 90; Barnyardgrass plant response rating [13, 15]: 90"
CCc1cc(C(=O)NC(C)C)nn1Cc1ccnc(C(F)(F)F)c1 [Compound 139],90,15,10,5,35,5,5,50,100,90,60,55,90,100,30,90,85,90,0,10,"Pigweed plant response rating [1, 21]: 100; Plant response rating, Nutsedge, Yellow ([2]; 125 g ai/ha, 13 to 15 days): 35; Nutsedge, Yellow plant response rating [2, 22]: 50; Plant response rating, Morningglory ([3]; 125 g ai/ha, 13 to 15 days): 98; Morningglory plant response rating [3, 22]: 98; Plant response rating, Soybean ([4]; 125 g ai/ha, 13 to 15 days): 30; Soybean plant response rating [4, 22]: 60; Foxtail, Giant plant response rating [6, 21]: 90; Morningglory plant response rating [7, 21]: 100; Plant response rating, Pigweed ([8]; 125 g ai/ha, 13 to 15 days): 90; Pigweed plant response rating [8, 22]: 100; Plant response rating, Blackgrass ([11]; 125 g ai/ha, 13 to 15 days): 90; Blackgrass plant response rating [11, 22]: 90; Plant response rating, Velvetleaf ([12]; 125 g ai/ha, 13 to 15 days): 95; Velvetleaf plant response rating [12, 22]: 100; Barnyardgrass plant response rating [13, 21]: 90; Barnyardgrass plant response rating [13, 15]: 80"
